From PMC8168342 (Chemical biology & drug design, 2021)

Target: T1, androgen receptor (AR) (Homo sapiens, UniProt P10275)
T1 sequence (P10275 1-920): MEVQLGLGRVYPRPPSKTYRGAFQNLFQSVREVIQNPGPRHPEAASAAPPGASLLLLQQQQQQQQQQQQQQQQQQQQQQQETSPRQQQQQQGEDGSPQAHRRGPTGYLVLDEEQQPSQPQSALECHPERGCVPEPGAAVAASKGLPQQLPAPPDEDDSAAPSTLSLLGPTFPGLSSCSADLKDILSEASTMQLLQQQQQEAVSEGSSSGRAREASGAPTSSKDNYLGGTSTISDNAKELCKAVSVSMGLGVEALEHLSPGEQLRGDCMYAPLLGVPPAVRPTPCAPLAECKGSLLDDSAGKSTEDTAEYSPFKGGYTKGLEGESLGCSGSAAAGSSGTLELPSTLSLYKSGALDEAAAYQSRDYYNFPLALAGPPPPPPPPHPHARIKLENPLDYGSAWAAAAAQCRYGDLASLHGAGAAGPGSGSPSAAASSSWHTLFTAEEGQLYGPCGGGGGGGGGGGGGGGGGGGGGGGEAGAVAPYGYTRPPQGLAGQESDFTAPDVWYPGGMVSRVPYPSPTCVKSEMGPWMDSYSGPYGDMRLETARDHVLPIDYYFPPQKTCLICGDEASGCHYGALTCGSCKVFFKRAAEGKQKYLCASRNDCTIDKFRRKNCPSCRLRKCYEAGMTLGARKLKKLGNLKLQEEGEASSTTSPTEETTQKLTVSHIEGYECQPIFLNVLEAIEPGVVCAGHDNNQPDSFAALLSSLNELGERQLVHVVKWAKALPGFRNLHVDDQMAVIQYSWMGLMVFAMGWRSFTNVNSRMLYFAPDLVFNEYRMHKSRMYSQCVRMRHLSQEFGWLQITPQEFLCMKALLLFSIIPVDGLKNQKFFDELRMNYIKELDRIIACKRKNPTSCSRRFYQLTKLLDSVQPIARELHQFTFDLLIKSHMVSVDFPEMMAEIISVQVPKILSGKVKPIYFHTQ
Assay: ARE luciferase reporter assay in MDA-kb2 cells, antagonism of […] DHT
Type: cell-based

CC1(C)C(=O)N(c2ccc(C#N)c(C(F)(F)F)c2)C(=S)N1c1ccc(CCCCCCN=[N+]=[N-])nc1 [11b, 4-(3-(6-(6-Azidohexyl)pyridin-3-yl)-4,4-dimethyl-5-oxo-2-thioxoimidazolidin-1-yl)-2-(trifluoromethyl) benzonitrile]
% inhibition at 1 μM: 60

CC1(C)C(=O)N(c2ccc(C#N)c(C(F)(F)F)c2)C(=S)N1c1ccc(CCCCCCO)nc1 [10b, 4-(3-(6-(6-Hydroxyhexyl)pyridin-3-yl)-4,4-dimethyl-5-oxo-2-thioxoimidazolidin-1-yl)-2-(trifluoromethyl) benzonitrile]
% inhibition at 1 μM: 60
